Measurements reported in PubChem BioAssay (NCI).
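Following 48 hours of exposure in 96-well plates, responses at five concentrations were used to interpolate endpoints linearly. GI50 is the concentration that inhibits growth by half. TGI: concentration producing complete growth inhibition.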

What was measured:
Assay in all cases: DTP human tumour cell line panel, 48 h
HCT-116 colon = system: HCT-116 colon
HCT-15 colon = system: HCT-15 colon
HL-60(TB) leukemia = system: HL-60(TB) leukemia
NCI-H460 lung = system: NCI-H460 lung
OVCAR-8 ovarian = system: OVCAR-8 ovarian
SF-295 CNS = system: SF-295 CNS
SK-MEL-28 melanoma = system: SK-MEL-28 melanoma
SK-OV-3 ovarian = system: SK-OV-3 ovarian
SN12C renal = system: SN12C renal
MOLT-4 leukemia = system: MOLT-4 leukemia

SMILES	TGI (HCT-116 colon) [µM]	TGI (HCT-15 colon) [µM]	TGI (HL-60(TB) leukemia) [µM]	TGI (NCI-H460 lung) [µM]	TGI (OVCAR-8 ovarian) [µM]	TGI (SF-295 CNS) [µM]	TGI (SK-MEL-28 melanoma) [µM]	TGI (SK-OV-3 ovarian) [µM]	TGI (SN12C renal) [µM]	GI50 (HCT-116 colon) [µM]	GI50 (SF-295 CNS) [µM]	GI50 (SK-OV-3 ovarian) [µM]	GI50 (SN12C renal) [µM]	GI50 (HCT-15 colon) [µM]	GI50 (HL-60(TB) leukemia) [µM]	GI50 (NCI-H460 lung) [µM]	GI50 (OVCAR-8 ovarian) [µM]	GI50 (SK-MEL-28 melanoma) [µM]	TGI (MOLT-4 leukemia) [µM]	GI50 (MOLT-4 leukemia) [µM]
CC(C)(C)c1cc(CCCCCCCC2(CCCCCCCc3cc(C(C)(C)C)cc(C(C)(C)C)c3)OC(COCCOCCCCCC#N)C(COCCOCCCCCC#N)O2)cc(C(C)(C)C)c1 (stereo not given)	> 100	> 100	> 100	> 100	> 100	> 100	> 100	> 100	> 100	–	–	–	–	–	–	–	–	–	–	–
COc1cc(CNCCN2C(=O)c3ccc4c5c(ccc(c35)C2=O)C(=O)N(CCNCc2cc(OC)c(OC)c(OC)c2)C4=O)cc(OC)c1OC	0.428	–	–	–	–	1.3	–	1.19	1.38	0.136	0.494	0.575	0.622	–	–	–	–	–	–	–
CC(=O)CC/C=C(\C)[C@H](O)[C@H](C)C(=O)O[C@H]1C[C@H](C)C=C2C=C[C@@]3(C)O[C@@H](O)CC(=O)[C@]3(C)[C@H]21	1.89	7.95	4.22	7.38	6	6.51	2.18	6.42	2.43	0.307	0.746	1.26	0.324	0.545	1.42	0.379	0.425	0.364	–	–
Cc1[nH]c2ccccc2c1CC/C(=N\Nc1ccccc1)c1ccccc1	> 100	> 100	> 100	> 100	> 100	> 100	> 100	> 100	–	–	–	–	–	–	–	–	–	–	> 100	–
C[C@@H](NS(=O)(=O)c1ccc(NC(=O)c2ccccc2)cc1)C(=O)O	–	> 100	> 100	> 100	> 100	> 100	> 100	> 100	> 100	–	–	–	–	–	–	–	–	–	> 100	–
O=C1C(=C([O-])c2ccccc2)C(=O)c2ccccc21.O=C1C(=C([O-])c2ccccc2)C(=O)c2ccccc21.[Mn+2]	–	> 100	–	–	> 100	> 100	> 100	–	> 100	–	74.6	–	91.6	55.4	–	–	> 100	93.8	> 100	> 100
CC1(C)N=C(N)N=C(N)N1c1ccc(OCCCNC(=O)Nc2cccc(S(=O)(=O)F)c2)c(Cl)c1	> 100	> 100	> 100	> 100	> 100	> 100	> 100	> 100	–	0.636	5.8	86.2	–	29.2	0.441	0.511	7.02	8.79	> 100	3.26
C=C1C(=O)O[C@H]2[C@H](OC(C)=O)[C@@H](C)CCCC3(C)OC3CCC3(CO3)[C@H](O)C[C@@H]12 (stereo not given in full)	13.1	21.8	–	36	> 100	28.3	41.6	62	24.8	3.7	11.4	21.2	10.4	10.2	–	12.9	17.5	8.36	4.14	1.73
Cc1cnc2oc3ccc(O)cc3c2c1-c1ccccc1	> 100	> 100	> 100	> 100	> 100	93.2	> 100	86.9	47.3	> 100	23.8	25	10	27.2	> 100	19.7	99	> 100	–	–
CCOC(=O)C(CCC(N)=O)(CCC(=O)OC)C(=O)OCC	> 100	–	> 100	> 100	> 100	> 100	> 100	> 100	> 100	–	–	–	–	–	–	–	–	–	> 100	–
CN(C)CC(=O)Nc1ccc2ncnc(Nc3ccc(Oc4cccc(C(F)(F)F)c4)c(Cl)c3)c2c1	3.03	3.1	4.94	3.45	13.1	4.28	3.22	–	10.5	1.65	2.02	–	2.85	1.48	2.09	1.76	3.24	1.74	6.36	2.14
O=C(NCCCl)Nc1cccnc1	32	66.7	> 100	–	27.9	94.5	> 100	43.5	64.7	–	–	–	–	–	–	–	–	–	81.8	–
Cc1ccc(/C=C(\NC(=O)c2ccccc2)c2nc3ccccc3[nH]2)cc1	> 100	> 100	56.8	> 100	> 100	> 100	> 100	–	> 100	–	–	–	–	–	–	–	–	–	–	–
CCn1c2ccccc2c(=O)c2c(OC)ccc(OC)c21	> 100	> 100	> 82.4	> 100	> 100	> 100	–	> 100	> 100	–	–	–	–	–	–	–	–	–	> 100	–
O=C(N/C(=C\c1cccc([N+](=O)[O-])c1)c1nc2ccccc2[nH]1)c1ccccc1	> 100	> 100	–	> 100	> 100	–	68.9	> 100	> 100	–	–	–	–	–	–	–	–	–	> 100	–
O=C(CCc1ccccc1)NS(=O)(=O)c1ccccc1	> 100	–	> 100	> 100	> 100	> 100	> 100	> 100	> 100	–	–	–	–	–	–	–	–	–	> 100	–
Oc1ccc2ccccc2c1N=Nc1cc(Cl)ccc1Cl	48.1	> 50	> 50	–	30.2	28.6	> 50	41.2	> 50	–	–	–	–	–	–	–	–	–	> 50	–
NC1CCCCC1N.O=C1C=C/C(=C(/c2ccc(O)c(Br)c2)c2ccccc2S(=O)(=O)[O-])C=C1Br.O=C1C=C/C(=C(/c2ccc(O)c(Br)c2)c2ccccc2S(=O)(=O)[O-])C=C1Br.[Pt+4]	> 100	> 100	> 100	> 100	> 100	> 100	38.2	> 100	> 100	0.79	4.99	54.2	3.59	3.85	1.43	1.54	1.27	2.35	–	–
O=C1C=CC(=C(c2ccccc2)c2ccc(O)cc2)C=C1	> 100	35.3	47.2	41.7	44.1	39.6	31.9	–	29.7	–	–	–	–	–	–	–	–	–	> 100	–
